This passage reports IC50 results from ChEMBL document CHEMBL3817781, “Identifying Interactions that Determine Fragment Binding at Protein Hotspots” (J Med Chem, 2016).

The assay deals with T1, Pantothenate synthetase (Mycobacterium tuberculosis, UniProt P9WIL5).
T1 sequence (P9WIL5 whole entry): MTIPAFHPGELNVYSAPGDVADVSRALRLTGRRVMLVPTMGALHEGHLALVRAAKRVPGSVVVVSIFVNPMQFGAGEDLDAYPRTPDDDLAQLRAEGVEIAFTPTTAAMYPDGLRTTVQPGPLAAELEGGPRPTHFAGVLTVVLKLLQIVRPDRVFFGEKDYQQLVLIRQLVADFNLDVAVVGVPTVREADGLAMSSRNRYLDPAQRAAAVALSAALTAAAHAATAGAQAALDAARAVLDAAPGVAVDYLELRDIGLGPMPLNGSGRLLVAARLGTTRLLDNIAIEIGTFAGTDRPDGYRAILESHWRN
Description: Inhibition of Mycobacterium tuberculosis pantothenate synthetase expressed in Escherichia coli.

Consider `COc1ccc2c(c1)cc(C(=O)NS(=O)(=O)Cc1ccc(C(F)(F)F)cc1)n2CC(=O)O`, for which the IC50 (usually the concentration needed to halve the response being measured) was determined as 250 nM.
